Data on 2 molecules can be found in ChEMBL document CHEMBL5303766, “Data for DCP probe FHT-2344” (2022).

A value given as a limit tells only on which side of the number the result lay.

The target of assay [1] is Casein kinase II subunit alpha' (Homo sapiens) (UniProt P19784). As to the kind of experiment: CSNK2A2A SGC Tm panel (DSF).
Assay [2] has as its target Chromodomain-helicase-DNA-binding protein 4 (Homo sapiens, UniProt Q14839). The experiment in a line: Measurement of the ATPase catalytic activity using the ADP-Glo detection ([…]). It is filed as functional. For orientation: In ADP-Glo the light output rises with the ADP produced.
For assay [3], the target named is Beta-3 adrenergic receptor (Homo sapiens) (UniProt P13945). Conditions: Compound concentration 10.0 uM; call rule not given here.
Assay [4] has as its target T1, Serine/threonine-protein kinase Nek1 (Homo sapiens) (UniProt Q96PY6).
T1 sequence (whole entry): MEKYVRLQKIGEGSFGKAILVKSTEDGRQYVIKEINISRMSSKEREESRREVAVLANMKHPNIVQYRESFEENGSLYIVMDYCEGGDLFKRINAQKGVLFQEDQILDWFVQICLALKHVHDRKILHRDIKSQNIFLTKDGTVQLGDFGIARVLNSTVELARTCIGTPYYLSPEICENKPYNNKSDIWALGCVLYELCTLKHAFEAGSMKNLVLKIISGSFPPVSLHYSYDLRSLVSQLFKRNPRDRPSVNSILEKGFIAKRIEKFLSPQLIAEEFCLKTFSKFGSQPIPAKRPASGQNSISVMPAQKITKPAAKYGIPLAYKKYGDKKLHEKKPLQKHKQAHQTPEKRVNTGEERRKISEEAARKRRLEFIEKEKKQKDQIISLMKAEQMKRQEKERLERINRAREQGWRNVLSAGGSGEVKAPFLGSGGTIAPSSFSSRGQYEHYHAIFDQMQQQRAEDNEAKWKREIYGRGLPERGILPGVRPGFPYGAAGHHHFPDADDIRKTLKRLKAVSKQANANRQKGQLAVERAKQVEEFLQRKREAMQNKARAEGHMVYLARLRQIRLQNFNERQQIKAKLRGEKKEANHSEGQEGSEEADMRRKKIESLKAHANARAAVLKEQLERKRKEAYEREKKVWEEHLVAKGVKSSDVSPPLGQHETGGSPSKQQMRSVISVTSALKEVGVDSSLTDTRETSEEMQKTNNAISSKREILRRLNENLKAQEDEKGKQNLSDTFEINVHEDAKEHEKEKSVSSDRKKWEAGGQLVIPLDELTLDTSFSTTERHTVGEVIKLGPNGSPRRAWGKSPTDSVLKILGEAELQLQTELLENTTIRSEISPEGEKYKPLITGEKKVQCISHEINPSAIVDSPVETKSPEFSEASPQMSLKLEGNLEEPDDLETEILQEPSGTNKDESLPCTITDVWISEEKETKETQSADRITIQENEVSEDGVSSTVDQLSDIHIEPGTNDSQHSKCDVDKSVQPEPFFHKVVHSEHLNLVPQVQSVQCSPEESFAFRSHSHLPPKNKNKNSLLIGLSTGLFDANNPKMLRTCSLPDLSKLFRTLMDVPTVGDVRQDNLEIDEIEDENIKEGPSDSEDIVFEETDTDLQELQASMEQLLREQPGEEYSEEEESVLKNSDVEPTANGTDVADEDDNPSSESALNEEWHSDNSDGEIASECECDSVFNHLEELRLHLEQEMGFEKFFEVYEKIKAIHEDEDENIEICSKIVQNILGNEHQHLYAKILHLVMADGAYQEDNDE
The experiment in a line: NEK1 SGC Tm panel (DSF). The note with it: for ΔTm: Compound concentration 10.0 uM.

For assay [5], the target named is Histamine H4 receptor (Homo sapiens) (UniProt Q9H3N8). Conditions: Compound concentration 10.0 uM.
For assay [6], the target named is Muscarinic acetylcholine receptor M1 (Homo sapiens) (UniProt P11229). The note with it: Compound concentration 10.0 uM.
Assay [7] addresses GABA-A receptor; anion channel (Rattus norvegicus) (UniProt O09028+P15431+P18506+P18508+P19969+P20236+P23574+P23576+P28471+P28473+P30191+P62813+P63079+P63138+Q91ZM7+Q9ES14). Conditions: Compound concentration 10.0 uM.
The target in assay [8] is SWI/SNF-related matrix-associated actin-dependent regulator of chromatin subfamily A member 4 (Homo sapiens, UniProt P51532). The experiment in a line: Measurement of the ATPase catalytic activity using the ADP-Glo detection (SMARCA4). It counts as functional.
For assay [9], the target named is Casein kinase II subunit alpha' (Homo sapiens) (UniProt P19784). The experiment in a line: CSNK2A2 SGC Tm panel (DSF).
Assay [10] has as its target 5-hydroxytryptamine receptor 2B (Homo sapiens, UniProt P41595). The experiment in a line: GPCRScan assay: inhibition of 5-HT2B. Further details: radioligand conc. used [nm] 1.0 – 2.0, parental cells stable HEK.
For assay [11], the target named is 5-hydroxytryptamine receptor 1E (Homo sapiens) (UniProt P28566). Conditions: Compound concentration 10.0 uM.
Assay [12] is described as follows: GPCRScan assay: inhibition of GABA/PBR. Further details: species or system Rattus norvegicus; radioligand conc. used [nm] 0.3 – 2.0, parental cells brain tissue.
The target in assay [13] is Sodium-dependent noradrenaline transporter (Homo sapiens, UniProt P23975). The experiment in a line: GPCRScan assay: inhibition of NET. Details: radioligand conc. used [nm] 1.3 – 5.0, parental cells stable HEK.
In assay [14] the target is Sigma non-opioid intracellular receptor 1 (Homo sapiens, UniProt Q99720). As to the kind of experiment: GPCRScan assay: inhibition of Sigma 1. Details: radioligand conc. used [nm] 4.0 – 5.0, parental cells HEKT.
Sigma non-opioid intracellular receptor 1, sequence (Q99720 whole entry): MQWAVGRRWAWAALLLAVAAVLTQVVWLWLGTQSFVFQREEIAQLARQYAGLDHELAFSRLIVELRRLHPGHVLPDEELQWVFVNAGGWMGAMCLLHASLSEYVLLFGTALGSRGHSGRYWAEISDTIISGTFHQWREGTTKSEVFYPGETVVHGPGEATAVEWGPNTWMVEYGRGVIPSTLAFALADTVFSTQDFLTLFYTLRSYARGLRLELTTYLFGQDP

Casein kinase II subunit alpha' (Homo sapiens), sequence (P19784 whole entry, looked up): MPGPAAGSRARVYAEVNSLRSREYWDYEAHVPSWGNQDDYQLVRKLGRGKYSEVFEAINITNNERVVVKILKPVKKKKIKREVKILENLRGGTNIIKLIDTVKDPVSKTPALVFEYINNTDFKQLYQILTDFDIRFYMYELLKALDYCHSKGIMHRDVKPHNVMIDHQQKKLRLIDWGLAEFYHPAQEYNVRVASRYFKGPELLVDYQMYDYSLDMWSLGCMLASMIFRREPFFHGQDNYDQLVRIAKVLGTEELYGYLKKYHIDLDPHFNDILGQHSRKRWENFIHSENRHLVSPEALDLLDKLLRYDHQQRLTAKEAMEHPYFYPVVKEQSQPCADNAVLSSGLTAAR
5-hydroxytryptamine receptor 2B, sequence (P41595 whole entry): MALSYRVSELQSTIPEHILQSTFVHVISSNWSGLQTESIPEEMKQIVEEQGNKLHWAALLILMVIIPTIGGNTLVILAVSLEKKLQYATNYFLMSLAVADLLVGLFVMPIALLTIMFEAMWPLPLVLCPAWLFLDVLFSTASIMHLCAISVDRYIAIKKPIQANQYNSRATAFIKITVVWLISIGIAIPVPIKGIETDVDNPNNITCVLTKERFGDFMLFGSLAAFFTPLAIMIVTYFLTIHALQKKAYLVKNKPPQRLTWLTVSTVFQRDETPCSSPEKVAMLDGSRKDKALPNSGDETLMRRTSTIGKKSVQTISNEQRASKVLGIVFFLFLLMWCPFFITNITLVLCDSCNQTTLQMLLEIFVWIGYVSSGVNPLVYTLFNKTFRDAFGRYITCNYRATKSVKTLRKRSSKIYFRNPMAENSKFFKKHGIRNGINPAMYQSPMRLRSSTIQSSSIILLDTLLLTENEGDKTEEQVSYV
Sodium-dependent noradrenaline transporter, sequence (P23975 whole entry): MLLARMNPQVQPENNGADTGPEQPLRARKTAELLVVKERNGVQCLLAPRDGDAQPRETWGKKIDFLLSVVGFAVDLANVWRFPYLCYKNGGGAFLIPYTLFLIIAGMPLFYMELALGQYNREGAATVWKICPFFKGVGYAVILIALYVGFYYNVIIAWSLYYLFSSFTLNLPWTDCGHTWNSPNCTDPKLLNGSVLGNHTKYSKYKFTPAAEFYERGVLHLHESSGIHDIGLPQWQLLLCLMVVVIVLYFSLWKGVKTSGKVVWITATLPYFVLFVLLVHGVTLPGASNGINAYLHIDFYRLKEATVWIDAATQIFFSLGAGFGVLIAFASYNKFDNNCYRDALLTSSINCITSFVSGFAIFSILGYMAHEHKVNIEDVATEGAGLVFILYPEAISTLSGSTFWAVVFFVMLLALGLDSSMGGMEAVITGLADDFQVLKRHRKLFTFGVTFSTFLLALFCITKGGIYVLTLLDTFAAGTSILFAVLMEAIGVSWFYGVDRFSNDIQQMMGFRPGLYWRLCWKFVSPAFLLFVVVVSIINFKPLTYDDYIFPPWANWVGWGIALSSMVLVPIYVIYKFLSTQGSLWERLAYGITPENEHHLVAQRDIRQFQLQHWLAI
Beta-3 adrenergic receptor (Homo sapiens), sequence (P13945 whole entry, looked up): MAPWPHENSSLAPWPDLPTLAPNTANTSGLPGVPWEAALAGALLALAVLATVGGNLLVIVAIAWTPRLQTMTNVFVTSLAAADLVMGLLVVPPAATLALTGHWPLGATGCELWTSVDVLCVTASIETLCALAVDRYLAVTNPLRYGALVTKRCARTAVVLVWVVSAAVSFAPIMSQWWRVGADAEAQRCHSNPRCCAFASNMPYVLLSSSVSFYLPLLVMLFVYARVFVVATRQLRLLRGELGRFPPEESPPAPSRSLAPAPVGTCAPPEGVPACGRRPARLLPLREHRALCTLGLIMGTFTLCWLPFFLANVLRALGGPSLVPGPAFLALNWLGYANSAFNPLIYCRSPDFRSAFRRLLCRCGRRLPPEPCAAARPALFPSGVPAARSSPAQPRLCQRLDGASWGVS
Muscarinic acetylcholine receptor M1 (Homo sapiens), sequence (P11229 whole entry): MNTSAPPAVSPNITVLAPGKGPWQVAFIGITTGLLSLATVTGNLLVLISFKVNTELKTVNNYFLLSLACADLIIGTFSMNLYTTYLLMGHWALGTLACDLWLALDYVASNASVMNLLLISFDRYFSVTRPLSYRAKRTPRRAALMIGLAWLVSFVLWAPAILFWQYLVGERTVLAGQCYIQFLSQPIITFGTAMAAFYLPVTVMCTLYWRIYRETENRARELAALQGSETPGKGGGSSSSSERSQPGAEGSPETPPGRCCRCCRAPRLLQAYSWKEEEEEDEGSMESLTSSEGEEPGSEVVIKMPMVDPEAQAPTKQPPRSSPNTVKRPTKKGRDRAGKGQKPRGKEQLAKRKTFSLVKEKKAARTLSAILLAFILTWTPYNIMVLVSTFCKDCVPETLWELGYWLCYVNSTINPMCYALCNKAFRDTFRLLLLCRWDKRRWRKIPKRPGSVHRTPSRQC
SWI/SNF-related matrix-associated actin-dependent regulator of chromatin subfamily A member 4, sequence (P51532 whole entry): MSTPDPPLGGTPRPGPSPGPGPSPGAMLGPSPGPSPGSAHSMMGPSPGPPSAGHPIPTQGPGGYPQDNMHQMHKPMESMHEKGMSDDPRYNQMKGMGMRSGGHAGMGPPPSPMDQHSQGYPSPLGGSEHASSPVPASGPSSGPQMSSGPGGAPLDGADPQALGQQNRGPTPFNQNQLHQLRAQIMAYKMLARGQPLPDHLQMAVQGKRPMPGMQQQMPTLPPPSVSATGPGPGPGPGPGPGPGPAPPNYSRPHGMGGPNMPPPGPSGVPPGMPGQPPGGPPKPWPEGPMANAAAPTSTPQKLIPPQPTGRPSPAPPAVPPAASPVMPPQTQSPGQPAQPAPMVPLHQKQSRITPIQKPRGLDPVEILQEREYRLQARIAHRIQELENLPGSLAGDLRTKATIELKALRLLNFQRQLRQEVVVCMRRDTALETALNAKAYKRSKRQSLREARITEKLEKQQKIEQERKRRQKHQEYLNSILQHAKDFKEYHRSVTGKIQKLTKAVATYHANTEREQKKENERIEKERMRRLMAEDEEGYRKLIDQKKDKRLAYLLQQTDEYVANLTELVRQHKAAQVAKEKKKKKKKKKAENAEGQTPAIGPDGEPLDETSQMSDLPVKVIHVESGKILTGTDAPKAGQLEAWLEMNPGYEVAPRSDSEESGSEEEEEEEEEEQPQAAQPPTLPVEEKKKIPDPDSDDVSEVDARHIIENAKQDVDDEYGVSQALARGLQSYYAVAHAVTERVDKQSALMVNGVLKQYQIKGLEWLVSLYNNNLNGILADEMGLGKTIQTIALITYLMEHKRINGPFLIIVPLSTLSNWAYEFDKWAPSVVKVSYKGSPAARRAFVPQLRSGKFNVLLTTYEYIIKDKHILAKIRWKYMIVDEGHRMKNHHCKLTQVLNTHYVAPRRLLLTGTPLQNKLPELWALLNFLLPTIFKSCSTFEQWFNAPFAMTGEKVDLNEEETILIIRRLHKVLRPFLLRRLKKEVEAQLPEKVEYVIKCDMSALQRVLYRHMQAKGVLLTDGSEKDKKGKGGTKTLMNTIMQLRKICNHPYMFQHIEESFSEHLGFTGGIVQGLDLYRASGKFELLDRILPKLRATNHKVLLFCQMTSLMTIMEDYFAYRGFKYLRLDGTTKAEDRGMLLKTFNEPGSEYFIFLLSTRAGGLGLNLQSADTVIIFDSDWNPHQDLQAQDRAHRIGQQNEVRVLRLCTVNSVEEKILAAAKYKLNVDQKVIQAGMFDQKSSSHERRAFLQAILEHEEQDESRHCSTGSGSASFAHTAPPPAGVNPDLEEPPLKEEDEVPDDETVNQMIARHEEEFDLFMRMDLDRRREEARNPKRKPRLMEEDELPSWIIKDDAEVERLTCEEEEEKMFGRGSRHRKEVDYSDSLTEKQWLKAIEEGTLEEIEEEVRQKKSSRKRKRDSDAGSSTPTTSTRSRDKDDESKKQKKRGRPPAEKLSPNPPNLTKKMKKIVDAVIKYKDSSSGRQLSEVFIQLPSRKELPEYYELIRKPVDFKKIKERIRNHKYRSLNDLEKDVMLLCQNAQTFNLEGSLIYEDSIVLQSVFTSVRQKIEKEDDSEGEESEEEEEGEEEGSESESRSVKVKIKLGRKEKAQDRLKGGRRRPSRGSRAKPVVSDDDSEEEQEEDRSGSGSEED
Histamine H4 receptor (Homo sapiens), sequence (Q9H3N8 whole entry): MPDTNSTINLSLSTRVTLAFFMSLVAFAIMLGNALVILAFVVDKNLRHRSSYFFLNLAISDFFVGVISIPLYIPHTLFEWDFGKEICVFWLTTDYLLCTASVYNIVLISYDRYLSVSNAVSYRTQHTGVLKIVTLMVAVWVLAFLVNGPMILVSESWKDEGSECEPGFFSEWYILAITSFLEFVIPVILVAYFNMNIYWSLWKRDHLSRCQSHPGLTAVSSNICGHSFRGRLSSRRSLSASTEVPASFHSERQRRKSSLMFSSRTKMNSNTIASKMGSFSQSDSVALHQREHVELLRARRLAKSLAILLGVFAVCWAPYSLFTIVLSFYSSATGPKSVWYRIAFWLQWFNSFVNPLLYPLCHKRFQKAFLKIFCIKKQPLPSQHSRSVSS
5-hydroxytryptamine receptor 1E (Homo sapiens), sequence (P28566 whole entry): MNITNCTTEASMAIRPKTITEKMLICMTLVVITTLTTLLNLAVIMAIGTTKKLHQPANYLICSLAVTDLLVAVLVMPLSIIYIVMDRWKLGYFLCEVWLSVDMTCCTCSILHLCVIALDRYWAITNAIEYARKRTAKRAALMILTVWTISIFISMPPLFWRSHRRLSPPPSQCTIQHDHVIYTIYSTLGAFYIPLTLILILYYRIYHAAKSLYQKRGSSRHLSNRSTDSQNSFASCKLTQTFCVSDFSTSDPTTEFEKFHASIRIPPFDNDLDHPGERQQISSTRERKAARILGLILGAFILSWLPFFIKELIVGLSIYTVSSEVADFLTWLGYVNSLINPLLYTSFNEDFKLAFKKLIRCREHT

Take `COC[C@H](NC(=O)c1ccn(S(C)(=O)=O)c1)C(=O)Nc1nc(-c2cccc(-c3ccn(C)n3)c2)cs1`: the delta Tm Staurosporine positive control in assay [1] is 4.26; in assay [4] it was -0.578. Further, the ΔTm in assay [1] (Compound concentration 10.0 uM) was 0.0547; in assay [4] it was -0.226. Besides, in assay [2], the IC50 was > 200000 nM (not active). The inhibition in assay [3] is -3.49%; in [5], -0.33%.

For the molecule `C[C@H](NC(=O)c1cn(C2(C#N)CC2)cn1)C(=O)Nc1nc(-c2cccc(-c3ccn(C)n3)c2)cs1`, the inhibition in assay [6] is 23.2%; in assay [7], 49.4%; in [11] it was -0.87%. Besides, in [8], the IC50 was 3990 nM (not active). For the same molecule, the delta Tm Staurosporine positive control in assay [9] is 4.26; in assay [4], -0.578. Further, the ΔTm in assay [9] (Compound concentration 10.0 uM) was -0.217; in assay [4], -0.482. Moreover, the Ki was 508 nM in assay [10] (read-out: Ki); 490 nM in assay [10] (read-out: pKi (converted)); 1580 nM in [12]; 8270 nM in assay [13]; 417 nM in assay [14] (read-out: Ki); 407 nM in [14] (read-out: pKi (converted)). For the same molecule, the pKi in [12] came out at 5.81.

One may read the IC50 as the midpoint of a concentration-inhibition curve. A lower IC50 goes with inhibition by little substance. The inhibition is the relative decrease from the control value, in per cent. The term pKi denotes −log10 of the Ki, conventionally taken in molar units.
